{"source": "patent US8361968B2", "about": "(Takeda Pharmaceutical Company Limited, priority 2002, dated 2013)", "key": {"in vitro": {"assay": "in vitro", "settings": "female, Balb/c, mouse, serum", "quoted_text": "Blood was drawn from Balb/c mice (female) of 8 weeks old, settled at 37° C. for 30 minutes and centrifuged at 13000 rpm for 10 minutes to give the serum as the supernatant. The serum thus obtained was frozen-stored at −80° C.\nThe stability test was performed by addition of 5 nmol of Compound (5 μL of aqueous solution) to 45 μL of serum and then settlement of the mixture at 37° C. The settlement was made at 3 points of time, including 2, 10 and 30 minutes. The sample after the settlement was boiled for 3 minutes and cooled on an ice bath. After 200 μL of acetonitrile/water (3/1) was added to the sample, the mixture was ultrasonicated for 5 minutes and then centrifuged at 5000 rpm for 1 minute. After 150 μL of the supernatant was diluted with 250 μL of distilled water, insoluble matters were removed by filtration through a filter having a pore size of 0.45 μm and 200 μL of the filtrate was applied on HPLC (220 nm) to determine the peak area of Compound. A ratio of the peak area to the area when Compound was treated for 0 minute under the same conditions was calculated as a mean value in 4 respective runs to determine the residual ratio. Next, by taking the calculated residual ratio on the ordinate and the time on the abscissa, a graph was prepared and approximated by an exponential function.\nThe preparative HPLC used was the LC-VP series manufactured by Shimadzu Corporation and Wakosil-II 5C18 HG (4.6 mm×100 mm) manufactured by Wako Pure Chemical Industries, Ltd. was used as the column. Eluant A (0.1% TFA-containing water) and eluant B (0.1% TFA-containing acetonitrile) were used as eluants. Analysis was performed by linear density gradient elution (25 minutes) at a flow rate of 1.0 ml/min. using eluants A/B: 100/0-0/50."}, "immature rat": {"test_system": "immature rat", "assay": "Induction of ovulation in immature rat using metastin derivatives", "format": "in vivo, rats", "settings": "for number of oocytes in average per rat / dose to be administered for induction of ovulation equivalent to hCG: eCG-primed immature female rats; for dose to be administered for induction of ovulation equivalent to hCG: s.c.", "procedure": "Equine chorionic gonadotropin (eCG, serotropin, Dainippon Pharmaceutical Co., Ltd.) was dissolved in saline (Otsuka Pharmaceutical Co., Ltd.) in a concentration of 100 IU/mL. Using a 1 mL tuberculin syringe with a 26-gauge needle (both by Terumo Co., Ltd.), eCG was subcutaneously injected into the dorsal area of female Wistar rats of 23 days old after birth (Charles River Japan, Inc.) in a dose of 10 IU/animal, during 9:00 to 10:00 AM. As shown below, the animal was grouped 47 to 48 hours after the eCG injection and the drugs were given to these groups, respectively.\nGroup B (5 rats): Compound No. 305 was dissolved in saline at 33.3 nmol/mL and the solution was subcutaneously injected into the back in a dose of 6.7 nmol/animal.\nGroup C (5 rats): Compound No. 305 was dissolved in saline at 10.0 nmol/mL and the solution was subcutaneously injected into the back in a dose of 2.0 nmol/animal.\nGroup D (5 rats): Compound No. 322 was dissolved in saline at 33.3 nmol/mL and the solution was subcutaneously injected into the back in a dose of 6.7 nmol/animal.\nGroup E (5 rats): Compound No. 322 was dissolved in saline at 10.0 nmol/mL and the solution was subcutaneously injected into the back in a dose of 2.0 nmol/animal.\nGroup F (6 rats): Saline was subcutaneously injected into the back in a dose of 200 μL/animal.\nAfter administration of these drugs, the animal was sacrificed by decapitation after 24 to 25 hours to recover blood, bilateral oviducts and uterus. In collecting the blood, 90 μL of 10 KIU/mL aprotinin solution (Trasylol, Bayer) containing 3 mg/ml EDTA had been previously filled in a tube for recovery to prevent blood clotting. After blood recovery, the blood was thoroughly blended and the mixture was centrifuged at 2,000 G for 25 minutes. The supernatant was recovered and used as a plasma sample.\nThe number of oocytes was counted by referring to the method described in Eur. J. Endocrinol., 138, 594-600 (1998). That is, where retained oocytes in the oviducal ampulla were confirmed by stereomicroscopic observation of the oviduct, the ampulla was punctured with a 27-gauge syringe needle (Terumo) to retrieve the oocytes. After granulosa cells surrounding the oocytes were removed by trypsin treatment, the number of oocytes was counted. Where the retained oocytes in the oviducal ampulla were not confirmed by stereomicroscopic observation of the oviduct, a 27-gauge syringe needle with the polished tip was inserted into the tubal ostium and more than 400 μL of saline was flushed into the oviduct and uterine for rinsing. Then, the presence or absence of oocytes in the effluent was observed."}, "[1]": {"test_system": "hOT7T175-expressed CHO cells", "format": "cell-based", "procedure": "Assay for Cell Growth Inhibition Activity in hOT7T175-Expressed Cho Cells hOT7T175-Expressed CHO cells (hereinafter hOT7T175) were cultured in DMEM supplemented with 10% dialyzed FBS (hereinafter 10% dFBS/DMEM), which was used for the following assay. The hOT7T175 was suspended in 10% dFBS/DMEM at 10,000 cells/ml. The cells were plated on a 96 well plate at 100 μL each/well (1,000 cells/well), followed by culturing overnight at 37° C. in a 5% CO2 incubator. On the following day, the medium was removed and 90 μL of 10% dFBS/DMEM supplemented with 0.5% BSA (hereinafter, 0.5% BSA/10% dFBS/DMEM) was added. […] After 10 μL of Cell Counting Kit-8 solution (Dojin Chemical Laboratory) was added to each well, incubation was performed at 37° C. in a 5% CO2 incubator for 4 hours and absorbance was measured at 450 nm."}, "rats": {"test_system": "rats", "assay": "Effect of metastin derivatives on blood glucose level and blood glucagon level", "format": "in vivo", "settings": "for blood glucose level: i.v. 80 nmol/kg (FIG. 10); for blood glucagon level: i.v. 80 nmol/kg (FIG. 11)", "source_text": "The value indicates (mean±SE) (n=5). The symbol * designates that the P-value is 0.05 or less, when compared to the saline group and the symbol ** designates that the P-value is 0.01 or less, when compared to the saline group.\nIn the figure, the symbols, open circle, closed circle and closed triangledesignate the blood glucagon level in the saline group and the group receiving 80 nmol/kg KiSS1-305 (Compound No. 305), the group receiving 80 nmol/kg KiSS1-322 (Compound No. 322), respectively. The value indicates (mean±SE) (n=5). The symbol * designates that the P-value is 0.05 or less, when compared to the saline group.\nAn operation was performed in free moving mature Wistar male rats (weighing […] at the time of operation) in a manner similar to TEST EXAMPLE 1 to collect blood. After the operation, the animal was maintained overnight. […] To prevent blood clotting, 3 μl of 300 KIU/ml aprotinin solution containing 3 mg/ml EDTA had previously been filled in the syringe. […] Blood was collected from the jugular vein by 300 μl each 2, 5, 15, 30, 45 and 60 minutes starting from the intravenous injection. The collected blood was centrifuged (13,000 rpm, 5 minutes) with a high speed refrigerated centrifuge (MR-150, Tomy Seiko Co., Ltd.) to recover the supernatant (plasma). Glucose level in blood was measured using Fuji Drychem 3500 (FUJI FILM) and glucagon level in blood was measured using a glucagon kit “Daiichi” (Daiichi Radioisotope Laboratories Ltd.), as in TEST EXAMPLE 1 or 2."}, "[2]": {"test_system": "human colonic carcinoma-derived cell line SW620", "assay": "Tumor growth inhibition activity in tumor-bearing mice with SW620", "format": "in vivo", "settings": "for tumor growth inhibition (tumor size) compared to the vehicle group: SW620 tumor-bearing BALB/cAnN-nu mice, s.c. osmotic pump", "procedure": "The abscissa denotes the number of days after injection. The bar on the abscissa designates a dosing period. The ordinate denotes a tumor size (mm^3).\nEvaluation of Tumor Growth Inhibition Activity\nOn the following day, human colonic carcinoma-derived cell line SW620 (ATCC) was dissolved in 20 mM phosphate buffered saline (pH 7.2)(PBS) containing 200 μL of 0.15M NaCl at a density of 2×10^6 cells. The resulting solution was subcutaneously injected into the left flank of the mice above. The day when the cells were injected was made Day 0. Tumor was measured with an electronic caliper every other or 2 other days during Days 4 to 13 from the cell administration, and tumor size was calculated by the following equation: […]."}}, "note": "Read-outs that look alike come from different tables or passages of the source. Square brackets hold non-standard residues; d marks the D form. Peptide text beside a SMILES is read from it. * marks the point of attachment. Propanoyl(3-(3-pyridyl)) = O=C(CCc1cccnc1)*; Arg(Me) = CNC(=N)NCCC[C@H](N)C(=O)O; d4Pal = N[C@H](Cc1ccncc1)C(=O)O; azaGly = NNC(=O)O"}
{"smiles": "CNC(=N)NCCC[C@H](NC(=O)[C@H](CC(C)C)NC(=O)NNC(=O)[C@H](Cc1ccccc1)NC(=O)[C@H](CO)NC(=O)[C@H](CC(N)=O)NC(=O)[C@@H](Cc1ccncc1)NC(=O)[C@H](N)Cc1ccc(O)cc1)C(=O)N[C@@H](Cc1ccccc1)C(N)=O", "note": "[Compound No. 305, D-Tyr-D-Pya(4)-Asn-Ser-Phe-AzaGly-Leu-Arg(Me)-Phe-NH2] (H-[dY][d4Pal]NSF[azaGly]L[Arg(Me)]F-NH2)", "values": [{"measurement": "half-life at 100 µM", "setting": "in vitro", "result": 1.11, "unit": "h"}, {"measurement": "level of estradiol contained in plasma", "setting": "immature rat; 2.0 nmol/animal s.c. (FIG. 21)", "result": "no difference"}, {"measurement": "level of progesterone in blood", "setting": "immature rat; 2.0 nmol/animal s.c. (FIG. 22)", "result": "less than a half of the level in Group A"}, {"measurement": "level of estradiol contained in plasma", "setting": "immature rat; 6.7 nmol/animal s.c. (FIG. 21)", "result": "no difference"}, {"measurement": "level of progesterone in blood", "setting": "immature rat; 6.7 nmol/animal s.c. (FIG. 22)", "result": "less than a half of the level in Group A"}, {"measurement": "number of oocytes in average per rat", "setting": "immature rat; 2.0 nmol/animal s.c.", "result": 29.4, "unit": "oocytes"}, {"measurement": "number of oocytes in average per rat", "setting": "immature rat; 6.7 nmol/animal s.c.", "result": 32.6, "unit": "oocytes"}, {"measurement": "dose to be administered for induction of ovulation equivalent to hCG", "setting": "immature rat", "result": "at least 2.0 nmol/animal"}, {"measurement": "IC50", "setting": "[1]; hOT7T175-expressed CHO cells, 3 days culture, Cell Counting Kit-8, read-out: IC50 (M), cell growth inhibition activity", "result": "8.94e-09", "unit": "M"}, {"measurement": "blood glucose level", "setting": "rats", "result": "increase in the blood glucose level"}, {"measurement": "blood glucagon level", "setting": "rats", "result": "increase in the blood glucagon level"}, {"measurement": "tumor growth inhibition (tumor size) compared to the vehicle group", "setting": "[2]; 2.4 nmol/day/mouse×14 days", "result": "significant tumor growth inhibition activity from Days 5 to 11"}, {"measurement": "tumor growth inhibition (tumor size) compared to the vehicle group", "setting": "[2]; 24 nmol/day/mouse×14 days", "result": "significant effect of tumor growth inhibition from Days 5 to 9 and on Day 11"}, {"measurement": "effect of tumor growth inhibition relative to Metastin", "setting": "[2]; SW620 tumor-bearing mice, in vivo", "result": 10, "unit": "times"}]}
{"smiles": "CNC(=N)NCCC[C@H](NC(=O)[C@H](CC(C)C)NC(=O)NNC(=O)[C@H](Cc1ccccc1)NC(=O)[C@H](CO)NC(=O)[C@H](CC(N)=O)NC(=O)CCc1cccnc1)C(=O)N[C@@H](Cc1ccccc1)C(N)=O", "note": "[Compound No. 322, 3-Pyridylpropionyl-Asn-Ser-Phe-AzaGly-Leu-Arg(Me)-Phe-NH2] ({Propanoyl(3-(3-pyridyl))}-NSF[azaGly]L[Arg(Me)]F-NH2)", "values": [{"measurement": "half-life at 100 µM", "setting": "in vitro", "result": 1.57, "unit": "h"}, {"measurement": "rats ovulated", "setting": "immature rat; 2.0 nmol/animal s.c.", "result": "3 out of 5"}, {"measurement": "level of estradiol contained in plasma", "setting": "immature rat; 2.0 nmol/animal s.c. (FIG. 21)", "result": "tendency to show a higher level in rats with no ovulation induction"}, {"measurement": "level of progesterone in blood", "setting": "immature rat; 2.0 nmol/animal s.c. (FIG. 22)", "result": "very low level"}, {"measurement": "level of estradiol contained in plasma", "setting": "immature rat; 6.7 nmol/animal s.c. (FIG. 21)", "result": "no difference"}, {"measurement": "level of progesterone in blood", "setting": "immature rat; 6.7 nmol/animal s.c. (FIG. 22)", "result": "less than a half of the level in Group A"}, {"measurement": "number of oocytes in average per rat", "setting": "immature rat; 2.0 nmol/animal s.c.", "result": 11.6, "unit": "oocytes"}, {"measurement": "number of oocytes in average per rat", "setting": "immature rat; 6.7 nmol/animal s.c.", "result": 29.6, "unit": "oocytes"}, {"measurement": "dose to be administered for induction of ovulation equivalent to hCG", "setting": "immature rat", "result": "at least 6.7 nmol/animal"}, {"measurement": "IC50", "setting": "[1]", "result": "7.19e-08", "unit": "M"}, {"measurement": "blood glucose level", "setting": "rats", "result": "increase in the blood glucose level"}, {"measurement": "blood glucagon level", "setting": "rats", "result": "increase in the blood glucagon level"}, {"measurement": "tumor growth inhibition compared with the Metastin group", "setting": "[2]; 24 nmol/day/mouse×14 days, Day 11", "result": "significant tumor growth inhibition activity even when compared with the Metastin group"}, {"measurement": "tumor growth inhibition (tumor size) compared to the vehicle group", "setting": "[2]; 2.4 nmol/day/mouse×14 days", "result": "significant tumor growth inhibition activity in a 1/10 dose (2.4 nmol/day/mouse×14 days) of Metastin from Days 6 to 8"}, {"measurement": "tumor growth inhibition (tumor size) compared to the vehicle group", "setting": "[2]; 24 nmol/day/mouse×14 days", "result": "significant tumor growth inhibition activity from Days 6 to 11"}]}
